Tests used:
[1] = target: Carbonic anhydrase 2 (Homo sapiens, UniProt P00918); assay: Inhibition of human carbonic anhydrase 2 by Stopped-Flow CO2 Hydrase assay
[2] = target: Carbonic anhydrase 1 (Homo sapiens, UniProt P00915); assay: Inhibition of human carbonic anhydrase 1 by Stopped-Flow CO2 Hydrase assay
[3] = target: Carbonic anhydrase 9 (Homo sapiens, UniProt Q16790)
[4] = target: Carbonic anhydrase 12 (Homo sapiens, UniProt O43570)
Sequence of Carbonic anhydrase 12 (O43570 whole entry): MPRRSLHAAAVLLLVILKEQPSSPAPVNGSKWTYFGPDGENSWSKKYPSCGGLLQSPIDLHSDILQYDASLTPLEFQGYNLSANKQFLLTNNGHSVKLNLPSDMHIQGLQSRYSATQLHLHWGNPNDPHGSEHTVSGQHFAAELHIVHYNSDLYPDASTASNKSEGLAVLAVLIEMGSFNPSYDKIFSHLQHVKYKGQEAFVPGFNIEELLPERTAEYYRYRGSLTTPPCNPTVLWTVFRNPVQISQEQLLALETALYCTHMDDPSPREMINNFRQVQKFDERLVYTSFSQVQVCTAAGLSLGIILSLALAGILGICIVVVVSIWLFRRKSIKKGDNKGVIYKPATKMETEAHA

Sequence of Carbonic anhydrase 1 (P00915 whole entry): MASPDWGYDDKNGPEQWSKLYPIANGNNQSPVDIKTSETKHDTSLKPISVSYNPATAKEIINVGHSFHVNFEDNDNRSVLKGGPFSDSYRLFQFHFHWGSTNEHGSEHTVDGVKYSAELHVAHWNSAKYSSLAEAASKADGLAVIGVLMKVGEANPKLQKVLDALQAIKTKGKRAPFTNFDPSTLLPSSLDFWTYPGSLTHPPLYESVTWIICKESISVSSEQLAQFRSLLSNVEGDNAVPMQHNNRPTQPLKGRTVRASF

| Compound | Ki [1] [µM] | Ki [2] [µM] | Ki [3] [µM] | Ki [4] [µM] |
| --- | --- | --- | --- | --- |
| CC(C)(C)[Si](C)(C)Oc1ccc2ccc(=O)oc2c1 | > 100 | – | – | – |
| CC(C)(C)[Si](C)(C)Oc1ccc2ccc(=S)oc2c1 | > 100 | – | – | – |
| S=c1ccc2ccccc2s1 | > 100 | > 100 | – | – |
| Oc1ccc2ccc(=S)oc2c1 | > 100 | – | – | – |
| S=c1ccc2ccc(OCc3cn(-c4ccccc4)nn3)cc2o1 | > 100 | > 200 | 0.004 | – |
| O=c1ccc2ccccc2s1 | > 100 | > 100 | – | – |
| Oc1ccc2oc(=S)ccc2c1 | 285 | – | – | – |
| C#CCCCOc1ccc2ccc(=O)oc2c1 | > 100 | 124 | 0.83 | 0.37 |
| C#CCCCOc1ccc2ccc(=S)oc2c1 | > 100 | > 200 | 0.22 | – |
| CC(C)(C)[Si](C)(C)Oc1ccc2oc(=O)ccc2c1 | > 100 | – | – | – |
| S=c1ccc2ccccc2o1 | > 100 | > 100 | 6.7 | – |
| CC(C)(C)[Si](C)(C)Oc1ccc2oc(=S)ccc2c1 | > 100 | – | – | – |
| O=c1cc(O)c2ccccc2o1 [4-HYDROXYCOUMARINS] | > 100 | 95 | 0.41 | 6.3 |
| O=c1ccc2ccc(OCc3cn(-c4ccccc4)nn3)cc2o1 | > 100 | > 200 | 0.008 | – |

Further lines, with some results ahead:

| Ki [1] [µM] | Ki [2] [µM] | Ki [3] [µM] | Compound | Ki [4] [µM] |
| --- | --- | --- | --- | --- |
| > 100 | – | – | C=CCOc1ccc2ccc(=O)oc2c1 [7-ALLYLOXYCOUMARIN] | – |
| > 100 | – | – | C=CCOc1ccc2oc(=S)ccc2c1 | – |
| > 100 | > 100 | 0.19 | O=c1ccc2cc(O)ccc2o1 [6-HYDROXYCOUMARIN] | 0.68 |
| > 100 | 72 | – | C#CCOc1ccc2ccc(=O)oc2c1 | – |
| > 100 | – | – | C=CCOc1ccc2oc(=O)ccc2c1 | – |
| > 100 | – | – | C=CCOc1cc(=O)oc2ccccc12 | – |
| > 100 | 950 | 41.6 | C#CCOc1ccc2ccc(=S)oc2c1 | – |
| > 100 | – | – | C=CCOc1ccc2ccc(=S)oc2c1 | – |
| > 100 | – | – | C=CCOc1cc(=S)oc2ccccc12 | – |

From ChEMBL document CHEMBL3758094, “Thioxocoumarins Show an Alternative Carbonic Anhydrase Inhibition Mechanism Compared to Coumarins” (J Med Chem, 2016)
